Measured values taken from patent US20240293400A1, “NOVEL AZAINDOLE DERIVATIVES AS ANTIVIRAL AGENTS” (Centre National de la Recherche Scientifique, priority 2021, published 2024).

Tests used:
Axl = Axl (Homo sapiens (Human), UniProt P30530); assay: Kinase panel Z'-LYTE/Adapta SelectScreen and IC50 determination; format: biochemical; conditions: for Percentage inhibition AXL: 100 nM in 1% DMSO; for IC50: 10 concentrations between 100 nM and 0.00495 nM
Description: FIG. 2: […] The compounds are screened in DMSO at 1% final. The kinases were diluted in a concentrated concentration twice in kinase buffer. All the ATP solutions were diluted in a 4-fold concentrated working concentration (50 mM HEPES pH 7.5, 0.01% BRIJ-35, 10 mM MgCl2, 1 mM EGTA). […] The inhibitory activity of the compounds on a panel of kinases including, inter alia, AXL and FLT3 was evaluated by Thermo Fisher Scientific using Z′-LYTE® and Adapta® Select Screen technology. The fluorescence-based biochemical test uses coupled enzymes and is based on the difference in sensitivity of the phosphorylated and non-phosphorylated peptides to proteolytic cleavage. The peptide substrate is labeled with 2 fluorophores—one at each end—allowing fluorescence transfer (FRET). […] The Axl or FLT3 kinases were diluted at a two-fold concentration in kinase buffer. All the ATP solutions are diluted in a 4-fold working concentration (50 mM HEPES PH 7.5, 0.01% BRIJ-35, 10 mM MgCl2, 1 mM EGTA).

ZIKV BeH8 strain = assay: Antiviral activity against the Zika virus in HeLa cells; format: cell-based; conditions: for concentration at which infection of the Hela cells by the strain ZIKV BeH-8 is prevented: 24 h, qRT-PCR; for concentration at which infection of the Hela cells by the strain ZIKV BeH-8 is prevented / IC50: HeLa cells; for IC50: BeH-8 strain, MOI=0.1, 24 h; for active on infectious model ZIKV: summary table
WNV virus, Kunjin strain = assay: Antiviral activity against the WNV virus, Kunjin strain in HeLa cells; format: cell-based; conditions: summary table
SARS-COV-2 = assay: Anti-SARS-COV-2 activity in primary human bronchial epithelium model (MucilAir); format: cell-based; conditions: 1.25 μM, 24 hours, qRT-PCR

Axl, sequence (P30530 26-894): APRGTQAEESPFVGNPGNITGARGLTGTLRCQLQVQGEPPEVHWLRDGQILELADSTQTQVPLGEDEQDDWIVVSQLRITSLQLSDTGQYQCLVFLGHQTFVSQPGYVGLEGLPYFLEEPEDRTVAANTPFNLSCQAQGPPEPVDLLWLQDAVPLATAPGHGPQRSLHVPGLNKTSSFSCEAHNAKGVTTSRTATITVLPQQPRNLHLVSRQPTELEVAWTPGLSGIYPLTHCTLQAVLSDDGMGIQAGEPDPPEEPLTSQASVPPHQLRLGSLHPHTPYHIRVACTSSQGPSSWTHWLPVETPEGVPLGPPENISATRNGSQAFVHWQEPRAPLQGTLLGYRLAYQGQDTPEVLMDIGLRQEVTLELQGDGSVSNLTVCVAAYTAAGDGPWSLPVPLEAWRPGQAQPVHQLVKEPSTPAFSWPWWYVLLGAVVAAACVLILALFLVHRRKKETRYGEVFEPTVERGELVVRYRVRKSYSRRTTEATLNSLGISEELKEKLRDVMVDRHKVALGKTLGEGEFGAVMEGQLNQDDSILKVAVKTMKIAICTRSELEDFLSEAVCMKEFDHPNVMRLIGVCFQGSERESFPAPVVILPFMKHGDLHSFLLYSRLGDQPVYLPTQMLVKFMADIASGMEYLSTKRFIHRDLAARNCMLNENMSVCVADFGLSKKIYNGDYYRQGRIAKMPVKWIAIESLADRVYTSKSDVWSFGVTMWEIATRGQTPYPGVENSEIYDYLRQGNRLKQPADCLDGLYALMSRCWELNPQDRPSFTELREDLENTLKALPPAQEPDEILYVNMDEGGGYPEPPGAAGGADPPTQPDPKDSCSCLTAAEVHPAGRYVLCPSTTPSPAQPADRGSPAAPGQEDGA

CN1CCN(Cc2cccc(-c3cnc4[nH]cc(-c5cc(CNCCc6ccc(O)cc6)ccc5F)c4c3)c2)CC1 [Compound 1]
Percentage inhibition AXL (Axl): 95%
IC50 (Axl): 5.36 nM
concentration at which infection of the Hela cells by the strain ZIKV BeH-8 is prevented (ZIKV BeH8 strain): greater than or equal to 150 nM
IC50 (ZIKV BeH8 strain): 198 nM
active on infectious model ZIKV (ZIKV BeH8 strain): ACTIVE
active on infectious model KUNV (WNV virus, Kunjin strain): ACTIVE
infection of the primary bronchial epithelium by SARS-COV-2 (SARS-COV-2): inhibits the infection

CN1CCN(Cc2cccc(-c3cnc4[nH]cc(-c5cc(CNCc6ccccc6)ccc5F)c4c3)c2)CC1 [Compound 2]
Percentage inhibition AXL (Axl): 95%
IC50 (Axl): 2.36 nM
concentration at which infection of the Hela cells by the strain ZIKV BeH-8 is prevented (ZIKV BeH8 strain): greater than or equal to 150 nM
IC50 (ZIKV BeH8 strain): 25 nM
active on infectious model ZIKV (ZIKV BeH8 strain): ACTIVE
active on infectious model KUNV (WNV virus, Kunjin strain): ACTIVE

CN1CCN(Cc2cccc(-c3cnc4[nH]cc(-c5cc(NC(=O)Nc6ccccc6)ccc5F)c4c3)c2)CC1 [Compound 3]
Percentage inhibition AXL (Axl): 94%
IC50 (Axl): 6.3 nM
selectivity with respect to Axl relative to FLT3 (Axl; from IC50 Axl and IC50 FLT3): shows a selectivity with respect to Axl relative to FLT3
concentration at which infection of the Hela cells by the strain ZIKV BeH-8 is prevented (ZIKV BeH8 strain): greater than or equal to 150 nM
